Columns and labels:
[1] = molecular target: T1, MMP-9 (Homo sapiens, UniProt P14780); experiment: isothermal titration calorimetry with MMP-9; type: binding; conditions: ITC, 20 mM NaCl
T1 construct: Active MMP-9 enzyme was purchased from Calbiochem; purchased Calbiochem
Method: Isothermal titration calorimetry (ITC) was performed with a VP-ITC instrument from MicroCal, Inc. Titrations were carried out by injecting 5 μL of an inhibitor peptide solution (at concentration ranges from 0.5 mM to 2.0 mM) into the 1.4 mL stirred reaction cell. MMP-9 ranged in concentration from 50 to 80 μM in the cell. Both the inhibitor and the enzyme were in 20 mM sodium cacodylate (pH 5.5–7.0), 40 mM NaCl, or 20 mM Tris-HCl (pH 7.0–7.5), 40 mM NaCl. Titrations were conducted between 20° C. and 40° C. Typical experimental conditions for the titrations were a 10 second injection period followed by a 240 second delay between injections for a total of 40 injections. Blank titrations of inhibitor peptide into buffer were performed in order to correct for heats of dilution and mixing.
The independent set of multiple binding sites is the most common model for binding experiment evaluations. The analytical solution for the total heat is determined by (Freire et al., 1990):
[formula] where Q is the total heat, V is the cell volume, ΔH is the enthalpy, M is the macromolecule concentration (the binding partner in the cell), n is the binding stoichiometry, L is the ligand concentration (the binding partner in the syringe), and K is the association constant. Data were fit to this model using Origin version 5 (MicroCal, Inc.). Surface Plasmon Resonance
The peptide was dissolved in 20 mM cacodylate (pH 6.8), 20 mM NaCl at a final concentration of 1 mM. MMP-9 was dialyzed into the same buffer at a final concentration of 20 μM. A series of standard injections were performed as described above.

[2] = tested on: EpiDerm skin model; experiment: viability assay (MTT) in EpiDerm skin model; type: cell-based; conditions: peptide at 500 μM and 2 mM, relative to PBS control
Method: The sample containers were transferred to 6 well plates that contained fresh media. All peptides were dissolved in PBS at a final concentration of 10 mM, and 100 μL each peptide solution was pipetted onto the surface of the Epiderm sample container. Incubation was continued for 12 hours at 37° C., 5% CO2. After the incubation period, the sample containers were washed three times with PBS and the sample containers were transferred to a 24 well plate that contained 300 μL of MTT assay media per well (MTT concentration was 1 mg/mL). The colorimetric assay was allowed to develop for three hours (incubation at 37° C., 5% CO2). Sample containers were then transferred to a 24 well culture plate that contained 2 mL of isopropanol per well. Extraction of the colored precipitate occurred over a period of four hours at room temperature. Absorbance readings were taken at 570 nm and 650 nm for each sample. The percent viability of each sample relative to a PBS control was calculated as: 100×(OD570^sam−OD650^sam)/(OD570^con−OD650^con) (6) Routinely, the peptide sample was assayed in triplicate. Results

[3] = tested on: C57BL6/KsJ db/db mice; experiment: wound healing in db/db diabetic mice; type: in vivo
Description: The mice were obtained from The Jackson Laboratories and were aged 3–7 months before the onset of the wounding protocol. All mice were anesthetized prior to wounding. Wounds were created in C57BL6/KsJ db/db mice with a 4 mm biopsy punch. Two wounds were introduced onto the upper back of each animal by pulling the skin away from underlying structures and pushing the punch through the isolated skin. Typically, wounds were created to an average depth of 1.7 mm, with a range of 1.3 to 2.2 mm. No muscle involvement occurred during the course of wounding.
Each day the wounds were digitally photographed and wound areas were determined by computer integration of the photographs. All wound treatments and the subsequent data analyses were performed in a blind manner (see e.g., Brown et al., 1994). Wound area at the time of wounding (day 0) is arbitrarily set to a relative value of 1 for all wounds; such that subsequent wound areas are converted to relative wound areas by dividing the wound area at day n by the wound area at day zero.

[4] = tested on: fibronectin in human skin fibroblast cell line; experiment: fibronectin in human skin fibroblasts, EIA; type: cell-based; conditions: for Mean (fibronectin EIA, absorbance at 450 nm) / Median (fibronectin EIA, absorbance at 450 nm): 48 hours, n=2
Method: The fibroblast cells were first grown in a 96-well assay system using DMEM with 10% fetal bovine serum (FBS), both purchased from Sigma Chemical Co, St. Louis, Mo. […] Serum-free DMEM was used as a control. Cells were seeded into a 96 well plate at a concentration of 9×10^3 cells in 100 μl of DMEM containing 10% fetal bovine serum (FBS, Sigma Chemical Co., St. Louis, Mo.). The plate was incubated for 48 hours at 37° C. in a humidified 5% CO2 atmosphere. After incubation, the medium was aspirated and the wells were rinsed twice with 100 μl of serum-free DMEM. […] In addition, 100 μl of vehicle (serum-free DMEM) was added to 2 wells as a control. The plate was incubated for 48 hours at 37° C. in a humidified, 5% CO2 atmosphere.
The assay was performed using the recommended 100 μl of supernatant from each well of the 96-well plate. Standard buffer and stop solutions were freshly prepared before running the assay. A pre-antibody coated 96 well plate (provided with the kit) was used to transfer the test samples and the control. The plate was mixed, sealed, and incubated for 1 hour at 37° C. All the wells were washed three times (300ul) with washing buffer after removing sample solutions. 100ul of antibody-peroxidase conjugate solution was added into the wells. The plate was mixed, sealed, and incubated for one hour at 37° C. Solutions were removed and the wells were washed 3 times with washing buffer. All the wells were completely emptied at the end of washing from any liquid. 100 μl of substrate solution (hydrogen peroxide and tetramethylbenzidine in a buffered solution) was added to each well, and the plate was incubated at room temperature for 15 minutes. 100 μl of stop solution (freshly prepared 1N H2SO4) was added to each well in the same order as substrate. The plate was gently mixed and absorbance was read at 450 nm. Statistical analyses of data were performed using a one-way ANOVA.

[5] = MMP-9, 20 mM cacodylate (pH 6.8)
[6] = single dose 5 μL of 20 μg/mL at day zero

T1 sequence (P14780 107-707 limits assumed): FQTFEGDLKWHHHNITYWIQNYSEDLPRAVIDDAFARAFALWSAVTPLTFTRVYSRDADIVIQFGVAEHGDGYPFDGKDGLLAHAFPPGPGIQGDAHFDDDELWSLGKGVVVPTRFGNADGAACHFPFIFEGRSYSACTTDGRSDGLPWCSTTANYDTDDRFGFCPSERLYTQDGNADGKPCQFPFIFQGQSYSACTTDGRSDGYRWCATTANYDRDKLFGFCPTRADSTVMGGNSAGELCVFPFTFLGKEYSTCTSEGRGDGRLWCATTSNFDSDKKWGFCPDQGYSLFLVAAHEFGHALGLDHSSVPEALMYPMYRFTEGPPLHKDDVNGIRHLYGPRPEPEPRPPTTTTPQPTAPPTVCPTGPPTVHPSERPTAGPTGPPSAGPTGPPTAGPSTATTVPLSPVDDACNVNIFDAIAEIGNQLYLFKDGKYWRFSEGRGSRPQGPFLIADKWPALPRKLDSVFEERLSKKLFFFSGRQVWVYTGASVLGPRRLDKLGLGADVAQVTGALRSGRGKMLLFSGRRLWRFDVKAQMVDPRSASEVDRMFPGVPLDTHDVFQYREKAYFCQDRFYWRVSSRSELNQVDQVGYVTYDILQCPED

CC(C)[C@H](NC(=O)[C@H](CC(=O)O)NC(=O)[C@@H]1CCCN1C(=O)[C@H](CC(N)=O)NC(=O)CNC(=O)[C@H](CS)NC(=O)[C@H](CCCNC(=N)N)NC(=O)[C@@H]1CCCN1)C(=O)N[C@@H](C)C(=O)N[C@@H](CC(N)=O)C(=O)N[C@@H](Cc1ccc(O)cc1)C(=O)N[C@@H](CC(N)=O)C(=O)N[C@@H](Cc1ccccc1)C(=O)N[C@@H](Cc1ccccc1)C(=O)N1CCC[C@H]1C(=O)N[C@@H](CCCNC(=N)N)C(=O)N[C@@H](CCCCN)C(=O)N1CCC[C@H]1C(=O)N[C@@H](CCCCN)C(=O)O [Peptide 19-mer]
Stoichiometry ([1]; MMP-9 20 μM, peptide 1 mM, 20 mM cacodylate (pH 6.8)): 0.975 ± 0.02
ΔH [1, 5]: -26.1 ± 1.45 kcal/mol
ΔS [1, 5]: −11.6 ± 2.2 cal mol^−1 K^−1
total average viability [2]: 97.6%
wound inflammation ([3]; day one post wounding): reduction in wound inflammation
day on which wound contraction process began [3, 6]: 5 days
time to wound closure post wounding [3, 6]: 9 days
Mean (fibronectin EIA, absorbance at 450 nm) ([4]; 1×10^−4 M): 0.4045
Median (fibronectin EIA, absorbance at 450 nm) ([4]; 1×10^−4 M): 0.4045
Mean (fibronectin EIA, absorbance at 450 nm) ([4]; 1×10^−5 M): 0.2400
Median (fibronectin EIA, absorbance at 450 nm) ([4]; 1×10^−5 M): 0.2400
Mean (fibronectin EIA, absorbance at 450 nm) ([4]; 1×10^−6 M): 0.1895
Median (fibronectin EIA, absorbance at 450 nm) ([4]; 1×10^−6 M): 0.1895
effect on fibronectin stimulation compared with control and 10^−6 M ([4]; 10^−4 M): more than doubled
amount of fibronectin versus control ([4]; all concentrations tested (1×10^−4, 1×10^−5, 1×10^−6 M)): increased the amount of fibronectin present

— patent US7148194B2, “Method to increase fibronectin” (Kimberly-Clark Worldwide, Inc., priority 2002, dated 2006)
